Laboratory results taken from patent US20250000998A1, “MEDICAMENT FOR KILLING TUMOR CELLS” (PhotoQ3 Inc., priority 2021, published 2025).

Tested on: A549 (human lung cancer cell) xenograft
Experiment: Tumor regression effect in tumor-bearing mice by iTAP treatment (A549 cell line xenograft mouse)
Assay type: in vivo, BALB/c Slc-nu/nu mice
Details: Laserphyrin 5 mg/kg with 664 nm laser light 30 J/cm^2, IT-Cetuximab 3 mg/kg, alone or combined
Experimental: Separately cultured A549 cells were adjusted to 1×10^7 cells/100 μL, and the cells were subcutaneously administered (SC) to the right thigh of 7-week-old male BALB/c Slc-nu/nu mice, and xenograft mice (tumor-bearing mice) were produced. Tumor size was calculated using the following formula.
Tumor volume (mm^3)=major axis (mm)×minor axis (mm)×minor axis (mm)×0.5
When the tumor size of the mice reached an average size of approximately 150 mm^3, the mice were randomly divided into the following groups (n=3). • Condition (1) Control group: No administration • Condition (2) Laserphyrin (5 mg/kg) administration and 664 nm laser light (30 J/cm^2) • irradiation group • Condition (3) IT-Cetuximab (3 mg/kg) administration group • Condition (4) Laserphyrin (5 mg/kg), IT-Cetuximab (3 mg/kg) administration and 664 nm laser light (30 J/cm^2) irradiation group
IT-Cetuximab was administered intraperitoneally to mice, and 2 days later, Laserphyrin was administered through the tail vein. Furthermore, 2 hours after the administration of Laserphyrin, the tumor site was locally irradiated with a 664 nm laser light.
Tumor size was measured every 3 to 5 days after administration.

**Q.** For `C=Cc1c(C)c2cc3nc(c(CC(=O)N[C@@H](CC(=O)O)C(=O)O)c4[nH]c(cc5nc(cc1[nH]2)C(C)=C5CC)c(C)c4C(=O)O)[C@@H](CCC(=O)O)[C@@H]3C` [Laserphyrin, Talaporfin Sodium], which “macroscopic observation of the tumor” value is on record?
**A.** tumor growth was confirmed macroscopically
